In US6603012B2, “RAR selective retinoid agonists” (Hoffmann-La Roche Inc., priority 2000, dated 2003):

Test system: elastase-induced emphysema
Test: Repair of alveoli in the rat model of elastase-induced emphysema (morphometric analysis)
Assay type: in vivo, male Sprague Dawley rats
Settings: 0.003 mg/kg p.o., once daily starting 21 days post elastase injury
Description: RAR selective agonists were evaluated for its effects on alveolar repair in the rat model of elastase-induced emphysema in rats (D. Massaro et al. Nature Medicine (1997, 3, 675). Animals were divided into treatment groups of approximately eight. Lung inflammation and alveolar damage was induced in male Sprague Dawley rats by a single instillation of pancreatic elastase(porcine derived, Calbiochem) 2 U/gram body mass. Three weeks post injury, all-trans retinoic acid or RAR agonist was dissolved in dimethylsulfoxide (20 mg/ml) and stored at −20 C. Fresh working stocks were prepared daily by dilution in PBS to a final concentration of 2 mg/ml. Animals were dosed once daily with the retinoid by intraperitoneal injection or orally, starting 21 days post injury. Control groups were challenged with elastase and 21 days later treated with Vehicle (DMSO/PBS) for 14 days. Animals were sacrificed 24 hours after the last dose by exsanguination under deep anesthesia. The lungs were inflated with 10% neutral buffered formalin by intratracheal instillation at a constant rate (1 ml/gram body mass/min). The lung was excised and immersed in fixative for 24 hours prior to processing. Standard methods were used to prepare 5 um paraffin sections. Sections were stained with Hematoxylin and Eosin (H%E). Computerized Morphometric analysis was performed to determine the average alveolar size and alveolar number (Table 1).

Row | Compound | % repair area
1 | CCCCCC(/C=C/c1ccc(C(=O)O)cc1)c1ccc2c(c1)C(C)(C)CCC2(C)C (racemic) [(RS)-(E)-4-[3-(5,5,8,8-tetramethyl-5,6,7,8-tetrahydronaphthalen-2-yl)-oct-1-enyl]-benzoic Acid] | 53%

Same assay, conditions: 0.01 mg/kg p.o., once daily starting 21 days post elastase injury

Row | Compound | % repair area
2 | CCCCCC(/C=C/c1ccc(C(=O)O)cc1)c1ccc2c(c1)C(C)(C)CCC2(C)C (racemic) [(RS)-(E)-4-[3-(5,5,8,8-tetramethyl-5,6,7,8-tetrahydronaphthalen-2-yl)-oct-1-enyl]-benzoic Acid] | 49%

Same assay, conditions: 0.03 mg/kg p.o., once daily starting 21 days post elastase injury

Row | Compound | % repair area
3 | CCCCCC(/C=C/c1ccc(C(=O)O)cc1)c1ccc2c(c1)C(C)(C)CCC2(C)C (racemic) [(RS)-(E)-4-[3-(5,5,8,8-tetramethyl-5,6,7,8-tetrahydronaphthalen-2-yl)-oct-1-enyl]-benzoic Acid] | 32%

Test system: not given
Test: not given
Settings: not given

Row | Compound | melting point
4 | CC1(C)CCC(C)(C)c2cc(C(Cc3ccccc3)C(=O)Oc3ccc(C(=O)O)cc3)ccc21 (racemic) [Example 3.2, (RS)-4-[3-Phenyl-2-(5,5,8,8-tetramethyl-5,6,7,8-tetrahydronaphthalen-2-yl)-propanoyloxy]-benzoic acid] | 163 to 164 °C
5 | CC1(C)CCC(C)(C)c2cc(C(Cc3ccc(C(F)(F)F)cc3)C(=O)Oc3ccc(C(=O)O)cc3)ccc21 (racemic) [Example 3.4, (RS)-4-[2-(5,5,8,8-Tetramethyl-5,6,7,8-tetrahydronaphthalen-2-yl)-3-(4-trifluoromethylphenyl)-propanoyloxy]-benzoic acid] | 158 to 159 °C
6 | CCOCCC(C(=O)Oc1ccc(C(=O)O)cc1)c1ccc2c(c1)C(C)(C)CCC2(C)C (racemic) [Example 3.5, (RS)-4-[4-Ethoxy-2-(5,5,8,8-tetramethyl-5,6,7,8-tetrahydronaphthalen-2-yl)-butanoyloxy]-benzoic acid] | 133 to 134 °C
7 | CC(/C=C/c1ccc(C(=O)O)cc1)c1ccc2c(c1)C(C)(C)CCC2(C)C (racemic) [Example 10.2, (RS)-(E)-4-[3-(5,5,8,8-Tetramethyl-5,6,7,8-tetrahydronaphthalen-2-yl)-but-1-enyl]-benzoic acid] | 203 to 204 °C
8 | CCCC(/C=C/c1ccc(C(=O)O)cc1)c1ccc2c(c1)C(C)(C)CCC2(C)C (racemic) [Example 10.3, (RS)-(E)-4-[3-(5,5,8,8-Tetramethyl-5,6,7,8-tetrahydronaphthalen-2-yl)-hex-1-enyl]-benzoic acid] | 116 to 118 °C
9 | CC=CCC(/C=C/c1ccc(C(=O)O)cc1)c1ccc2c(c1)C(C)(C)CCC2(C)C (racemic) [Example 10.4, (RS)-(E)-4-[3-(5,5,8,8-Tetramethyl-5,6,7,8-tetrahydronaphthalen-2-yl)-hepta-1,5-dienyl]-benzoic acid] | 145 to 147 °C
10 | CCCCC(/C=C/c1ccc(C(=O)O)cc1)c1ccc2c(c1)C(C)(C)CCC2(C)C (racemic) [Example 10.5, (RS)-(E)-4-[3-(5,5,8,8-Tetramethyl-5,6,7,8-tetrahydronaphthalen-2-yl)-hept-1-enyl]-benzoic acid] | 107 to 108 °C
11 | CC(C)CC(/C=C/c1ccc(C(=O)O)cc1)c1ccc2c(c1)C(C)(C)CCC2(C)C (racemic) [Example 10.7, (RS)-(E)-4-[5-Methyl-3-(5,5,8,8-tetramethyl-5,6,7,8-tetrahydronaphthalen-2-yl)-hex-1-enyl]-benzoic acid] | 61 to 78 °C
12 | CC1(C)CCC(C)(C)c2cc(C(/C=C/c3ccc(C(=O)O)cc3)Cc3ccccc3)ccc21 (racemic) [Example 10.8, (RS)-(E)-4-[4-Phenyl-3-(5,5,8,8-tetramethyl-5,6,7,8-tetrahydronaphthalen-2-yl)-but-1-enyl]-benzoic acid] | 183 to 184 °C
13 | CC1(C)CCC(C)(C)c2cc(C(/C=C/c3ccc(C(=O)O)cc3)Cc3ccc(Cl)cc3)ccc21 (racemic) [Example 10.9, (RS)-(E)-4-[4-(4-Chlorophenyl)-3-(5,5,8,8-tetramethyl-5,6,7,8-tetrahydronaphthalen-2-yl)-but-1-enyl]-benzoic acid] | 168 to 169 °C
14 | CC1(C)CCC(C)(C)c2cc(C(/C=C/c3ccc(C(=O)O)cc3)CCc3ccccc3)ccc21 (racemic) [Example 10.11, (RS)-(E)-4-[5-Phenyl-3-(5,5,8,8-tetramethyl-5,6,7,8-tetrahydronaphthalen-2-yl)-pent-1-enyl]-benzoic acid] | 78 to 79 °C
15 | CCCCCC(/C=C/c1ccc(C(=O)O)s1)c1ccc2c(c1)C(C)(C)CCC2(C)C (racemic) [Example 10.12, (RS)-(E)-5-[3-(5,5,8,8-Tetramethyl-5,6,7,8-tetrahydronaphthalen-2-yl)-oct-1-enyl]-thiophene-2-carboxylic acid] | 128 to 129 °C
16 | CC1(C)CCC(C)(C)c2cc(C(/C=C/c3ccc(C(=O)O)cc3)Cc3ccc(F)cc3)ccc21 (racemic) [Example 10.13, (RS)-(E)-4-[4-(4-Fluorophenyl)-3-(5,5,8,8-tetramethyl-5,6,7,8-tetrahydronaphthalen-2-yl)-but-1-enyl]-benzoic acid] | 168 to 169 °C
17 | COc1ccc(CC(/C=C/c2ccc(C(=O)O)cc2)c2ccc3c(c2)C(C)(C)CCC3(C)C)cc1 (racemic) [Example 10.15, (RS)-(E)-4-[4-(4-Methoxyphenyl)-3-(5,5,8,8-tetramethyl-5,6,7,8-tetrahydronaphthalen-2-yl)-but-1-enyl]-benzoic acid] | 170 to 175 °C
18 | CCCCCC(/C=C/c1ccc(C(=O)O)cc1F)c1ccc2c(c1)C(C)(C)CCC2(C)C (racemic) [Example 10.16, (RS)-(E)-3-Fluoro-4-[3-(5,5,8,8-tetramethyl-5,6,7,8-tetrahydronaphthalen-2-yl)-oct-1-enyl]-benzoic acid] | 112 to 113 °C
19 | CCCCCC(C#Cc1ccc(C(=O)O)cc1)c1ccc2c(c1)C(C)(C)CCC2(C)C (racemic) [Example 12, (RS)-4-[3-(5,5,8,8-tetramethyl-5,6,7,8-tetrahydronaphthalen-2-yl)-oct-1-ynyl]-benzoic Acid] | 115 to 116 °C
20 | COC(C(=O)Oc1ccc(C(=O)O)cc1)c1ccc2c(c1)C(C)(C)CCC2(C)C (racemic) [Example 15.2. d), (RS)-4-[methoxy-(5,5,8,8-tetramethyl-5,6,7,8-tetrahydro-naphthalen-2-yl)-acetoxy]-benzoic acid] | 190 to 195 °C
21 | CCOC(C(=O)Oc1ccc(C(=O)O)cc1)c1ccc2c(c1)C(C)(C)CCC2(C)C (racemic) [Example 15.3. d), (RS)-4-[ethoxy-(5,5,8,8-tetramethyl-5,6,7,8-tetrahydro-naphthalen-2-yl)-acetoxy]-benzoic acid] | 123 to 125 °C
22 | CCCOC(C(=O)Oc1ccc(C(=O)O)cc1)c1ccc2c(c1)C(C)(C)CCC2(C)C (racemic) [Example 15.4. d), (RS)-4-[propoxy-(5,5,8,8-tetramethyl-5,6,7,8-tetrahydro-naphthalen-2-yl)-acetoxy]-benzoic acid] | 155 to 156 °C
23 | CC1(C)CCSc2ccc(C(/C=C/c3ccc(C(=O)O)cc3)Cc3ccccc3)cc21 (racemic) [Example 40.2, (RS)-(E)-4-[3-(4,4-Dimethyl-thiochroman-6-yl)-4-phenylbut-1-enyl]-benzoic acid] | 183 to 184 °C
24 | CC1(C)CCSc2ccc(C(/C=C/c3ccc(C(=O)O)cc3)CCc3ccccc3)cc21 (racemic) [Example 40.3, (RS)-(E)-4-[3-(4,4-Dimethyl-thiochroman-6-yl)-5-phenylpent-1-enyl]-benzoic acid] | 63 to 76 °C
25 | CCCCOC(C(=O)Oc1ccc(C(=O)O)cc1)c1ccc2c(c1)C(C)(C)CCC2(C)C (single isomer, unassigned) [Example 16 (from diastereomer I), (R)- or (S)-4-[butoxy-(5,5,8,8-tetramethyl-5,6,7,8-tetrahydro-naphthalen-2-yl)-acetoxy]-benzoic acid] | 112 to 113 °C
26 | CCCCOC(C(=O)Oc1ccc(C(=O)O)cc1)c1ccc2c(c1)C(C)(C)CCC2(C)C (single isomer, unassigned) [Example 16 (from diastereomer II), (S)- or (R)-4-[butoxy-(5,5,8,8-tetramethyl-5,6,7,8-tetrahydro-naphthalen-2-yl)-acetoxy]-benzoic acid] | 113 to 114 °C
27 | CC1(C)CCC(C)(C)c2cc(CCOc3ccc(C(=O)O)cc3)ccc21 [Example 11.2, 4-[2-(5,5,8,8-Tetramethyl-5,6,7,8-tetrahydronaphthalen-2-yl)-ethyloxy]-benzoic acid] | 195 to 196 °C

Test system: animal models of emphysema
Test: not given
Settings: cited from earlier work

Row | Compound | formation of new alveoli and elastic recoil
28 | CC1=C(/C=C/C(C)=C/C=C/C(C)=C/C(=O)O)C(C)(C)CCC1 [all-trans retinoic acid] | can induce formation of new alveoli and return elastic recoil to near normal

Test system: alveoli in rats
Test: not given
Settings: postnatal administration; cited from earlier work

Row | Compound | number of alveoli
29 | CC1=C(/C=C/C(C)=C/C=C/C(C)=C/C(=O)O)C(C)(C)CCC1 [all-trans retinoic acid] | increases the number of alveoli in rats
